Measured values as given in ChEMBL document CHEMBL6078666, “Discovery of Novel Coumarin Pleuromutilin Derivatives as Potent Anti-MRSA Agents” (J Med Chem, 2024).
Converted amounts (≈) assume the structure as drawn. The source made the active and inactive calls. The rule behind the calls is not given here.

Assays:
[1] = test system: Streptococcus pneumoniae; test: Antibacterial activity against penicillin-intermediate Streptococcus pneumoniae ATCC 49619 assessed as bacterial growth inhibition measured after 20 hrs by broth dilution method; type: functional
[2] = test system: Staphylococcus aureus; test: Antibiofilm activity in methicillin-resistant Staphylococcus aureus ATCC 33591 assessed as disruption of preformed biofilm at 4 to 16 times MIC measured after 24 hrs by crystal violet staining based assay relative to control; type: functional
[3] = test system: Staphylococcus aureus; test: Antibacterial activity against methicillin-resistant Staphylococcus aureus ATCC 33591 infected in female C57 mouse systemic infection model assessed as reduction in bacterial load in lung at 40 mg/kg, iv administered twice daily and measured after 7 days; type: functional; conditions: time 7 day
[4] = test system: Staphylococcus aureus; test: Antibacterial activity against methicillin-resistant Staphylococcus aureus ATCC 33591 infected in female C57 mouse systemic infection model assessed as reduction in appearance of loosely arranged cells in spleen at 40 mg/kg, iv administered twice daily and measured after 7 days by H and E staining based analysis; type: functional, organism-based; conditions: time 7.0 day
[5] = test system: Staphylococcus aureus; test: Ratio of MBC to MIC against methicillin-resistant Staphylococcus aureus clinical isolate 202311772; type: functional
[6] = test system: Enterococcus faecium; test: Antibacterial activity against vancomycin-resistant Enterococcus faecium ATCC 51559 assessed as bacterial growth inhibition measured after 20 hrs by broth dilution method; type: functional
[7] = test system: Enterococcus faecium; test: Ratio of MBC to MIC against vancomycin-resistant Enterococcus faecium ATCC 700221; type: functional
[8] = Acute toxicity in po dosed female C57 mouse assessed as lethal dose measured after 48 hrs; type: organism-based; conditions: in vivo
[9] = MRT in mouse at 5 mg/kg, iv measured after 8 hrs; type: ADME, organism-based; conditions: in vivo
[10] = test system: Staphylococcus aureus; test: Bactericidal activity against methicillin-resistant Staphylococcus aureus ATCC 33591 at 2 times MIC measured after 8 to 12 hrs by time kill assay; type: functional, organism-based; conditions: time 8-12 hrs
[11] = test system: Staphylococcus aureus; test: Antibiofilm activity in methicillin-resistant Staphylococcus aureus ATCC 33591 measured after 24 hrs by MTT assay; type: functional
[12] = test system: Staphylococcus aureus; test: Antibacterial activity against methicillin-resistant Staphylococcus aureus ATCC 33591 infected in female C57 mouse systemic infection model assessed as reduction in bacterial load in heart at 40 mg/kg, iv administered twice daily and measured after 7 days; type: functional; conditions: time 7 day
[13] = test system: Staphylococcus aureus; test: Antibacterial activity against Staphylococcus aureus ATCC 33591 measured after 9 days; type: functional, organism-based; conditions: time 9.0 day
[14] = test system: Staphylococcus aureus; test: Antibacterial activity against methicillin-resistant Staphylococcus aureus ATCC 33591 infected in female C57 mouse systemic infection model assessed as survival rate at 40 mg/kg, po measured upto 7 days relative to control; type: functional; conditions: ATCC 33591, 168 h, time <= 7 day
[15] = test system: Staphylococcus aureus; test: Antibacterial activity against methicillin-resistant Staphylococcus aureus ATCC 33591 infected in female C57 mouse systemic infection model assessed as reduction in inflammatory infiltration in kidney at 40 mg/kg, iv administered twice daily and measured after 7 days by H and E staining based analysis; type: functional, organism-based; conditions: time 7.0 day
[16] = test system: Staphylococcus aureus; test: Ratio of MBC to MIC against methicillin-resistant Staphylococcus aureus clinical isolate 202405157; type: functional
[17] = test system: Staphylococcus aureus; test: Antibacterial activity against methicillin-resistant Staphylococcus aureus ATCC 33591 infected in female C57 mouse systemic infection model assessed as reduction in bacterial load in liver at 40 mg/kg, iv administered twice daily and measured after 7 days; type: functional; conditions: time 7 day
[18] = test system: Staphylococcus aureus; test: Bactericidal activity against methicillin-resistant Staphylococcus aureus ATCC 33591 at 4 to 8 times MIC measured after 6 to 8 hrs by time kill assay; type: functional, organism-based; conditions: time 6-8 hrs
[19] = test system: Staphylococcus aureus; test: Antibiofilm activity in methicillin-resistant Staphylococcus aureus ATCC 33591 assessed as inhibition of biofilm formation at 1/16 time MIC measured after 48 hrs by crystal violet staining based analysis relative to control; type: functional; set-up: scale not given: the % may be the effect or the level left
[20] = test system: Staphylococcus aureus; test: Antibacterial activity against Staphylococcus aureus ATCC 25923 assessed as reduction in GFP expression at 1 to 4 times MIC measured after 1 hr by fluorescence microscopy based analysis; type: functional, organism-based
[21] = test system: Enterococcus faecium; test: Antibacterial activity against vancomycin-resistant Enterococcus faecium clinical isolate 202308456 assessed as bacterial growth inhibition measured after 20 hrs by broth dilution method; type: functional
[22] = test system: Staphylococcus aureus; test: Antibacterial activity against methicillin-resistant Staphylococcus aureus ATCC 33591 infected in female C57 mouse systemic infection model assessed as reduction in number of inflammatory cells in heart at 40 mg/kg, iv administered twice daily and measured after 7 days by H and E staining based analysis; type: functional, organism-based; conditions: time 7.0 day
[23] = test system: Staphylococcus aureus; test: Antibacterial activity against methicillin-resistant Staphylococcus aureus ATCC 33591 infected in female C57 mouse systemic infection model assessed as reduction in distorted myocardial fibers in heart at 40 mg/kg, iv administered twice daily and measured after 7 days by H and E staining based analysis; type: functional, organism-based; conditions: time 7.0 day
[24] = test system: Streptococcus pneumoniae; test: Ratio of MBC to MIC against penicillin-resistant Streptococcus pneumoniae ATCC 51916; type: functional
[25] = test system: Enterococcus faecium; test: Antibacterial activity against vancomycin-resistant Enterococcus faecium ATCC 700221 assessed as bacterial growth inhibition measured after 20 hrs by broth dilution method; type: functional
[26] = test system: Staphylococcus aureus; test: Antibiofilm activity in methicillin-resistant Staphylococcus aureus ATCC 33591 assessed as inhibition of biofilm formation measured after 48 hrs by crystal violet staining based analysis relative to control; type: functional, organism-based
[27] = AUC (0 to t) in mouse at 5 mg/kg, iv measured after 8 hrs; type: ADME, organism-based; conditions: in vivo
[28] = test system: Staphylococcus aureus; test: Bactericidal activity against methicillin-resistant Staphylococcus aureus ATCC 33591 at 1 times MIC measured upto 24 hrs by time kill assay; type: functional, organism-based
[29] = test system: Staphylococcus epidermidis; test: Ratio of MBC to MIC against Staphylococcus epidermidis ATCC 51625; type: functional
[30] = test system: A549; test: Cytotoxicity against human A549 cells at 0 to 40 ug/ml measured after 24 hrs by MTT assay relative to control; type: functional; conditions: dose 0-40 µg/ml
[31] = test system: Staphylococcus aureus; test: Antibacterial activity against methicillin-resistant Staphylococcus aureus ATCC 33591 infected in female C57 mouse systemic infection model assessed as survival rate at 20 mg/kg, po measured upto 7 days relative to control; type: functional; conditions: ATCC 33591, 168 h, time <= 7 day
[32] = test system: Staphylococcus aureus; test: Antibacterial activity against methicillin-resistant Staphylococcus aureus ATCC 33591 infected in female C57 mouse systemic infection model assessed as survival rate at 5 mg/kg, po measured upto 7 days relative to control; type: functional; conditions: ATCC 33591, 168 h, time <= 7 day
[33] = test system: Staphylococcus aureus; test: Ratio of MBC to MIC against methicillin-resistant Staphylococcus aureus ATCC 33591; type: functional
[34] = test system: Staphylococcus epidermidis; test: Antibacterial activity against methicillin-resistant Staphylococcus epidermidis clinical isolate 202409454 assessed as bacterial growth inhibition measured after 20 hrs by broth dilution method; type: functional
[35] = test system: Staphylococcus aureus; test: Antibacterial activity against methicillin resistant Staphylococcus aureus ATCC 33591 assessed as post antibiotic effect at 4 times MIC by time kill assay; type: functional
[36] = test system: Staphylococcus aureus; test: Antibacterial activity against methicillin-resistant Staphylococcus aureus ATCC 33591 assessed as bacterial growth inhibition measured after 20 hrs by broth dilution method; type: functional
[37] = test system: Staphylococcus aureus; test: Drug resistance, ratio of MIC for Staphylococcus aureus ATCC 33591 after 8 days to MIC for methicillin-resistant Staphylococcus aureus ATCC 33591 after initial exposure; type: functional; conditions: time 8 day
[38] = test system: Staphylococcus aureus; test: Antibacterial activity against methicillin-resistant Staphylococcus aureus ATCC 33591 infected in female C57 mouse systemic infection model assessed as reduction in inflammatory cell aggregation in lung at 40 mg/kg, iv administered twice daily and measured after 7 days by H and E staining based analysis; type: functional, organism-based; conditions: time 7.0 day

Question: Which MIC [1] does the source give for `C=C[C@]1(C)C[C@@H](OC(=O)CSc2cc(=O)oc3cc(OC)ccc23)[C@]2(C)[C@H](C)CC[C@]3(CCC(=O)[C@H]32)[C@@H](C)[C@@H]1O` here?
Answer: 0.031 µg/mL (≈ 0.0545 µM)

Question: And the Activity [2]?
Answer: 68.29%

Question: What about the Activity [3] of the same molecule?
Answer: 2.21 log10CFU/g

Question: What about the Activity [4] of the same molecule?
Answer: Active

Question: And the Ratio [5]?
Answer: 1

Question: And the MIC [6]?
Answer: 0.031 µg/mL (≈ 0.0545 µM)

Question: What about the Ratio [7] of the same molecule?
Answer: 1

Question: And the LD50 at 48 h [8]?
Answer: 2000 mg/kg

Question: And the MRT [9]?
Answer: 36.6 min

Question: And the Activity [10]?
Answer: Active

Question: And the MBEC [11]?
Answer: 8 µg/mL

Question: What about the Activity [12] of the same molecule?
Answer: 3.33 log10CFU/g

Question: What about the Activity [13] of the same molecule?
Answer: inactive

Question: And the survival at 40 mg/kg [14]?
Answer: 80%

Question: And the Activity [15]?
Answer: Active

Question: What about the Ratio [16] of the same molecule?
Answer: 2

Question: And the Activity [17]?
Answer: 2.05 log10CFU/g

Question: And the Activity [18]?
Answer: Active

Question: What about the Activity [19] of the same molecule?
Answer: 50.42%

Question: And the Activity [20]?
Answer: Active

Question: What about the MIC [21] of the same molecule?
Answer: 0.031 µg/mL (≈ 0.0545 µM)

Question: What about the Activity [22] of the same molecule?
Answer: Active

Question: And the Activity [23]?
Answer: Active

Question: What about the Ratio [24] of the same molecule?
Answer: 2

Question: What about the MIC [25] of the same molecule?
Answer: 0.031 µg/mL (≈ 0.0545 µM)

Question: And the Activity [26]?
Answer: Dose-dependent-effect

Question: And the AUCt [27]?
Answer: 1740 ng·h/mL

Question: And the Activity [28]?
Answer: Active

Question: What about the Ratio [29] of the same molecule?
Answer: 4

Question: And the Activity [30]?
Answer: >85%

Question: And the survival at 20 mg/kg [31]?
Answer: 60%

Question: What about the survival at 5 mg/kg [32] of the same molecule?
Answer: 40%

Question: And the Ratio [33]?
Answer: 2

Question: What about the MIC [34] of the same molecule?
Answer: 0.063 µg/mL (≈ 0.111 µM)

Question: What about the PAE [35] of the same molecule?
Answer: 1.9 h

Question: What about the MIC [36] of the same molecule?
Answer: 0.031 µg/mL (≈ 0.0545 µM)

Question: And the “fold change (FC)” value [37]?
Answer: 4

Question: And the Activity [38]?
Answer: Active
